Results from patent US9409952B2, “Peptide-compound cyclization method” (Chugai Seiyaku Kabushiki Kaisha, priority 2011, dated 2016).
Read-outs that look alike come from different tables or passages of the source. Starred links: 1 amine or outer side, 2 acyl side, 3 side chain; linkers in the order of their positions; H or OH if unused. Positions of bridges follow the written chain, without caps; N, C: chain ends. Non-standard residues stand in square brackets, D forms with d. Residues, ends and D or L forms follow the SMILES beside them. ξ: configuration not given here. *: point of attachment. NMeF = CN[C@@H](Cc1ccccc1)C(=O)O; NMeGABA = CN(CCCC(=O)[*:2])[*:1]; NMeI = CC[C@H](C)[C@H](NC)C(=O)O; NMeβAla = CN(CCC(=O)[*:2])[*:1]; NMeL = CN[C@@H](CC(C)C)C(=O)O; ξNMeF = CNC(Cc1ccccc1)C(=O)O; NMeV = CN[C@H](C(=O)O)C(C)C; NMeA = CN[C@@H](C)C(=O)O; Piperidide = C1CCN(*)CC1; dNMeA = CN[C@H](C)C(=O)O; β3hA = C[C@H](N)CC(=O)O; Sar = CNCC(=O)O; tBu = CC(C)(C)*

What was measured:
[1] = PAMPA (parallel artificial membrane permeability assay); type: in vitro ADME; conditions: PAMPA
How it was run: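 Artificial membrane was 10% (w/v) egg lecithin plus 0.5% (w/v) cholesterol in dodecane on a PVDF filter. A 10 mM DMSO stock was added at 0.5% (v/v) to donor buffer (50 mM MOPSO, pH 6.5, 5.0% glycocholic acid). After 18 h at 37 °C, LC/MS or LC/UV gave donor and acceptor levels for Pe.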

[2] = Metabolic stability in human hepatic microsome; type: in vitro ADME; conditions: for microsomal CLint at 1 uM: microsomes
[3] = membrane permeation rate (Pe), 50 mM MOPSO buffer pH 6.5 with 5.0% glycocholic acid, 37° C., 18 hours, read-out: iPAMPA Pe
[4] = pH 7.4, human hepatic microsome, NADPH(+), read-out: CL NADPH(+)

SMILES	Papp at 18 hours, 50 µM ([1]; pH 6.5)	CL NADPH(+) ([2]; human hepatic microsome, NADPH(+))	Papp at 18 hours, 50 µM [1, 3]	microsomal CLint at 1 uM [2, 4]	microsomal CLint at 1 uM ([2]; human, pH 7.4, CL NADPH(+))
CC(C)C[C@H]1C(=O)N[C@@H](COC(C)(C)C)C(=O)N[C@H](C(=O)N2CCCCC2)CC(=O)N(C)[C@@H](C)C(=O)N(C)[C@@H](C)C(=O)N(C)[C@@H](Cc2ccccc2)C(=O)N(C)[C@@H](CC(C)C)C(=O)N[C@@H]([C@@H](C)O)C(=O)N(C)CC(=O)N1C [DP-39] ([NMeA][NMeA][NMeF][NMeL]T[Sar][NMeL]S(tBu)D-Piperidide; lactam N-9)	16 ×10⁻⁶ cm/s	67			
CC(C)C[C@@H]1NC(=O)[C@H](Cc2ccccc2)N(C)C(=O)[C@H](CC(C)C)N(C)C(=O)CCN(C)C(=O)C[C@@H](C(=O)N2CCCCC2)NC(=O)[C@H](CC(C)C)N(C)C(=O)[C@H](Cc2ccccc2)N(C)C(=O)[C@H]([C@@H](C)O)NC(=O)[C@H](Cc2ccccc2)N(C)C1=O [DP-126] ([NMeβAla][NMeL][NMeF]L[NMeF]T[NMeF][NMeL]D-Piperidide; lactam N-9)			54 ×10⁻⁶ cm/s	239 µL/min/mg	
CC[C@H](C)[C@H]1C(=O)N[C@@H](COC(C)(C)C)C(=O)N[C@H](C(=O)N2CCCCC2)CC(=O)N(C)[C@@H](C)C(=O)N(C)[C@@H](Cc2ccccc2)C(=O)N(C)CC(=O)N(C)[C@@H](CC(C)C)C(=O)N[C@@H]([C@@H](C)O)C(=O)N(C)[C@@H](C)C(=O)N(C)[C@@H](CC(C)C)C(=O)N1C [DP-138] ([NMeA][NMeF][Sar][NMeL]T[NMeA][NMeL][NMeI]S(tBu)D-Piperidide; lactam N-10)			31 ×10⁻⁶ cm/s	48 µL/min/mg	
CC(C)C[C@H]1C(=O)N(C)[C@@H](C(C)C)C(=O)N[C@@H](Cc2ccccc2)C(=O)N[C@H](C(=O)N2CCCCC2)CC(=O)N[C@H](C(C)C)C(=O)N[C@@H](COC(C)(C)C)C(=O)N(C)[C@@H](CC(C)C)C(=O)N[C@@H]([C@@H](C)O)C(=O)N(C)[C@@H](Cc2ccccc2)C(=O)NCC(=O)N1C [DP-171] ([dV]S(tBu)[NMeL]T[NMeF]G[NMeL][NMeV]FD-Piperidide; lactam N-10)			50 ×10⁻⁶ cm/s	191 µL/min/mg	
CC(C)C[C@H]1C(=O)N[C@H](C(=O)N2CCCCC2)CC(=O)N(C)[C@H](C)C(=O)N(C)[C@@H](CC(C)C)C(=O)N[C@@H]([C@@H](C)O)C(=O)N(C)[C@@H](CC(C)C)C(=O)N[C@@H](COC(C)(C)C)C(=O)N1C [DP-725] ([dNMeA][NMeL]T[NMeL]S(tBu)[NMeL]D-Piperidide; lactam N-7)			35 ×10⁻⁶ cm/s	138 µL/min/mg	
CC[C@H](C)[C@@H]1NC(=O)[C@@H](C)N(C)C(=O)C[C@@H](C(=O)N(C)[C@@H](Cc2ccccc2)C(=O)N[C@@H](C)C(=O)N2CCCCC2)NC(=O)[C@H](Cc2ccccc2)N(C)C(=O)[C@H](C)NC(=O)[C@H](CC(C)C)N(C)C(=O)[C@H](C)N(C)C(=O)[C@H]([C@@H](C)O)NC(=O)[C@H](C(C)C)N(C)C(=O)[C@H](C)N(C)C1=O [DP-124] ([dNMeA]I[NMeA][NMeV]T[NMeA][NMeL]A[NMeF]D[NMeF]A-Piperidide; lactam N-10)	20 ×10⁻⁶ cm/s				27 µL/min/mg
CC[C@H](C)[C@@H]1NC(=O)[C@H](CC(C)C)N(C)C(=O)CN(C)C(=O)[C@H]([C@@H](C)O)NC(=O)[C@@H](C)N(C)C(=O)C[C@@H](C(=O)N2CCCCC2)NC(=O)[C@H](CC(C)C)N(C)C(=O)[C@H](Cc2ccccc2)N(C)C(=O)[C@H](CC(C)C)N(C)C1=O [DP-512] ([dNMeA]T[Sar][NMeL]I[NMeL][NMeF][NMeL]D-Piperidide; lactam N-9)			18 ×10⁻⁶ cm/s	62 µL/min/mg	
CC(C)C[C@@H]1NC(=O)CCN(C)C(=O)C[C@@H](C(=O)N2CCCCC2)NC(=O)[C@H](CC(C)C)N(C)C(=O)[C@H](CC(C)C)NC(=O)[C@H](Cc2ccccc2)NC(=O)[C@H](C)NC(=O)[C@H]([C@@H](C)O)NC(=O)[C@H](CC(C)C)NC(=O)CN(C)C(=O)[C@H](CC(C)C)NC1=O [DP-324] ([NMeβAla]LL[Sar]LTAFL[NMeL]D-Piperidide; lactam N-11)			7.7 ×10⁻⁶ cm/s	59 µL/min/mg	
CC[C@H](C)[C@@H]1NC(=O)[C@H](CC(C)C)NC(=O)[C@H](Cc2ccccc2)NC(=O)CN(C)C(=O)[C@H](CC(C)C)NC(=O)[C@H](Cc2ccccc2)NC(=O)[C@@H](C)NC(=O)C[C@@H](C(=O)N2CCCCC2)NC(=O)[C@H]([C@@H](C)O)NC(=O)[C@H](Cc2ccccc2)NC1=O [DP-430] ([dA]FL[Sar]FLIFTD-Piperidide; lactam N-10)			32 ×10⁻⁶ cm/s	96 µL/min/mg	
CC(C)C[C@@H]1NC(=O)[C@H]([C@@H](C)O)NC(=O)[C@@H]2CCCN2C(=O)CNC(=O)[C@H](CC(C)C)N(C)C(=O)[C@H](Cc2ccccc2)NC(=O)[C@H](CC(C)C)N(C)C(=O)[C@H](CC(C)C)N(C)C(=O)[C@H](Cc2ccccc2)NC(=O)CN(C)C(=O)C[C@@H](C(=O)N(C)C(Cc2ccccc2)C(=O)N[C@@H](C)C(=O)N2CCCCC2)NC1=O (some centres unmarked) [DP-185] ([Sar]F[NMeL][NMeL]F[NMeL]GPTLD[ξNMeF]A-Piperidide; lactam N-11)			46 ×10⁻⁶ cm/s	19 µL/min/mg	
CC[C@H](C)[C@H]1C(=O)NCC(=O)N(C)[C@@H](Cc2ccccc2)C(=O)N[C@@H]([C@@H](C)O)C(=O)N(C)[C@@H](CC(C)C)C(=O)N[C@@H](CC(C)C)C(=O)N[C@@H](C)CC(=O)N(C)[C@H](C)C(=O)N(C)[C@@H](CC(C)C)C(=O)N[C@@H](Cc2ccccc2)C(=O)N(C)[C@@H](CC(C)C)C(=O)N[C@@H](C(C)C)C(=O)N1C [DP-757] (cyclo(F[NMeL]V[NMeI]G[NMeF]T[NMeL]L[β3hA][dNMeA][NMeL]))	33 ×10⁻⁶ cm/s				124 µL/min/mg
CC[C@H](C)[C@H]1C(=O)N(C)[C@@H](CC(C)C)C(=O)N(C)[C@@H](Cc2ccccc2)C(=O)N[C@@H](CC(C)C)C(=O)N(C)[C@@H](C(C)C)C(=O)N[C@@H](Cc2ccccc2)C(=O)N[C@@H]([C@@H](C)O)C(=O)N[C@H](C(=O)N2CCCCC2)CC(=O)N(C)CCC(=O)N[C@@H](C)C(=O)N1C [DP-259] ([NMeβAla]A[NMeI][NMeL][NMeF]L[NMeV]FTD-Piperidide; lactam N-10)			28 ×10⁻⁶ cm/s	91 µL/min/mg	
CC[C@H](C)[C@@H]1NC(=O)[C@@H](C)NC(=O)C[C@@H](C(=O)N2CCCCC2)NC(=O)[C@H](Cc2ccccc2)NC(=O)[C@H]([C@@H](C)O)NC(=O)[C@H](C)NC(=O)[C@H](Cc2ccccc2)NC(=O)[C@H](CC(C)C)NC(=O)[C@H](CC(C)C)N(C)C(=O)[C@H](Cc2ccccc2)NC(=O)[C@H](CC(C)C)NC1=O [DP-415] ([dA]ILF[NMeL]LFATFD-Piperidide; lactam N-11)			2.9 ×10⁻⁶ cm/s	118 µL/min/mg	
CC(C)C[C@H]1C(=O)N(C)[C@@H](Cc2ccccc2)C(=O)NCC(=O)N[C@H](C(=O)N2CCCCC2)CC(=O)N(C)CCCC(=O)N[C@@H]([C@@H](C)O)C(=O)N(C)[C@@H](C)C(=O)N(C)[C@@H](Cc2ccccc2)C(=O)N[C@@H](COC(C)(C)C)C(=O)N1C [DP-129] ([NMeGABA]T[NMeA][NMeF]S(tBu)[NMeL][NMeF]GD-Piperidide; lactam N-9)			17 ×10⁻⁶ cm/s	120 µL/min/mg	
CC(C)C[C@@H]1NC(=O)[C@H]([C@@H](C)O)NC(=O)[C@@H]2CCCN2C(=O)[C@H](Cc2ccccc2)NC(=O)[C@H](COC(C)(C)C)NC(=O)[C@H](CC(C)C)N(C)C(=O)[C@H](Cc2ccccc2)NC(=O)[C@@H](C)N(C)C(=O)C[C@H](C)NC(=O)CNC(=O)[C@H](C)N(C)C(=O)[C@H](C)N(C)C1=O [DP-752] (cyclo(F[NMeL]S(tBu)FPTL[NMeA][NMeA]G[β3hA][dNMeA]))	6.2 ×10⁻⁶ cm/s				33 µL/min/mg
CC(C)C[C@H]1C(=O)N[C@@H](Cc2ccccc2)C(=O)N[C@@H]([C@@H](C)O)C(=O)N(C)[C@@H](C)C(=O)N(C)[C@@H](Cc2ccccc2)C(=O)N(C)[C@@H](C(C)C)C(=O)NCC(=O)N[C@H](C(=O)N(C)[C@@H](Cc2ccccc2)C(=O)N[C@@H](C)C(=O)N2CCCCC2)CC(=O)N(C)[C@H](C)C(=O)N[C@@H](C)C(=O)N1C [DP-355] ([dNMeA]A[NMeL]FT[NMeA][NMeF][NMeV]GD[NMeF]A-Piperidide; lactam N-10)			17 ×10⁻⁶ cm/s	66 µL/min/mg	
CC(C)C[C@@H](C(=O)N[C@@H](C)C(=O)N1CCCCC1)N(C)C(=O)[C@H](C)N(C)C(=O)[C@@H]1CC(=O)N[C@H](C(C)C)C(=O)N(C)[C@@H](C)C(=O)N(C)[C@@H](CC(C)C)C(=O)N(C)[C@@H](CC(C)C)C(=O)N(C)CC(=O)N(C)[C@@H](Cc2ccccc2)C(=O)N[C@@H](C)C(=O)N(C)[C@@H](Cc2ccccc2)C(=O)N(C)[C@@H](CC(C)C)C(=O)N[C@@H]([C@@H](C)O)C(=O)N1 [DP-582] ([dV][NMeA][NMeL][NMeL][Sar][NMeF]A[NMeF][NMeL]TD[NMeA][NMeL]A-Piperidide; lactam N-11)			21 ×10⁻⁶ cm/s	12 µL/min/mg	
CC[C@H](C)[C@H]1C(=O)N(C)[C@@H](Cc2ccccc2)C(=O)N(C)[C@@H](CC(C)C)C(=O)N[C@H](C(=O)N2CCCCC2)CC(=O)N(C)[C@H](C)C(=O)N(C)[C@@H](CC(C)C)C(=O)N[C@@H]([C@@H](C)O)C(=O)N(C)[C@@H](C)C(=O)N[C@@H](C)C(=O)N(C)[C@@H](Cc2ccccc2)C(=O)N[C@@H](CC(C)C)C(=O)N1C [DP-244] ([dNMeA][NMeL]T[NMeA]A[NMeF]L[NMeI][NMeF][NMeL]D-Piperidide; lactam N-11)			31 ×10⁻⁶ cm/s	16 µL/min/mg	
CC(C)C[C@@H]1NC(=O)[C@H](CC(C)C)N(C)C(=O)[C@H](C)N(C)C(=O)[C@H]([C@@H](C)O)NC(=O)[C@H](Cc2ccccc2)N(C)C(=O)[C@@H](C)NC(=O)C[C@@H](C(=O)N2CCCCC2)NC1=O [DP-741] ([dA][NMeF]T[NMeA][NMeL]LD-Piperidide; lactam N-7)			10 ×10⁻⁶ cm/s	169 µL/min/mg	
